Consider 1 compound from article PMC6240685, “Strong Inhibitory Effect, Low Cytotoxicity and High Plasma Stability of Steroidal Inhibitors of N-Methyl-D-Aspartate Receptors With C-3 Amide Structural Motif” (Frontiers in Pharmacology, 2018).

In the test the test system is AMPARs. Description: Inhibition of native AMPAR responses in cultured hippocampal neurons. The test is classed as cell-based, rat. The settings on record: cyclothiazide 10 μM. The method, then: FIGURE 8 The effect of compound 6 on peak and steady-state responses of native NMDARs, AMPARs, and GABARs. (A) Examples of traces obtained from cultured hippocampal neurons. […] Error bars represent SD from five independent measurements. Asterisks mark significance at the level of P < 0.05 (Paired t-test).
FIGURE 9 The effect of compound 6 on native NMDARs, AMPARs, and GABARs. (A) Example of traces obtained from cultured hippocampal neurons. Compound 6 (10 or 30 μM) was co-applied with NMDA (100 μM), AMPA (100 μM), and GABA (5 μM) (duration of agonist and steroid application is indicated by filled and open bars, respectively). […]
Electrophysiological experiments were performed on HEK293 cells transfected with plasmids encoding rat GluN1-1a/GluN2A-D and GFP genes as described previously, ([Petrovic et al., 2005]; [Cais et al., 2008]; [Korinek et al., 2010]) or on primary hippocampal neurons prepared from P0–P1 rats, plated on collagen/poly-D-lysine-coated glass coverslips at a density of ∼50,000 cells/cm^2, and grown in Neurobasal A medium with B27 Supplement (Gibco). […] Agonist-induced responses were low-pass filtered at 2 kHz, digitally sampled at 5 kHz, and analyzed with pClamp software version 10.5 (Molecular Devices). […] Action potentials were recorded in the current-clamp mode from primary hippocampal mass-culture neurons at 14–15 days in vitro. […]

As for `C[C@@]12CCC[C@H]1[C@@H]1CC[C@@H]3C[C@H](NC(=O)[C@@H](N)CC(=O)O)CC[C@]3(C)[C@H]1CC2` [Compound 6, (S)-3-amino-4-(((3R,5R,8S,9S,10S,13S,14S)-10,13-dimethylhexadecahydro-1H-cyclopenta[a]phenanthren-3-yl)amino)-4-oxobutanoic acid], the “effect on amplitude of AMPA-induced responses” value (AMPA 100 μM) is given as “only little affected”. Besides, where the note is “estimated from single dose (30 μM), Hill coefficient fixed at 1.2, 100 μM AMPA, read-out: IC50 at AMPAR responses (estimate)”, the potency estimated from few doses is 276 ± 179 µM.
